Legend:
Assay type in all cases: in vivo
Stellaria media [1] = assay: Herbicidal activity, postemergence test; details: post; sprayed onto seedling plants, 800 g of active material per hectare; evaluated 2 weeks after treatment
Procedure, shortened: (§1)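 First, test compound in acetone containing 0.4% Triton X-155 is diluted with water. Next, it is sprayed at 800 g/ha (900 L/ha) onto freshly seeded loam (pre) or onto seedlings (post). Finally, plants are scored 0-9 visually after 3 or 2 weeks, respectively.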

Hordeum vulgare [2] = assay: Herbicidal activity, postemergence test; details: post; sprayed onto seedling plants, 800 g of active material per hectare; evaluated 2 weeks after treatment
Procedure, shortened: as §1

Echinochloa crus-galli [3] = assay: Herbicidal activity, postemergence test; details: post; sprayed onto seedling plants, 800 g of active material per hectare; evaluated 2 weeks after treatment
Procedure, shortened: as §1

Viola arvensis [4] = assay: Herbicidal activity, postemergence test; details: post; sprayed onto seedling plants, 800 g of active material per hectare; evaluated 2 weeks after treatment
Procedure, shortened: as §1

Amaranthus retroflexus [5] = assay: Herbicidal activity, postemergence test; details: post; sprayed onto seedling plants, 800 g of active material per hectare; evaluated 2 weeks after treatment
Procedure, shortened: as §1

Abutilon theophrasti [6] = assay: Herbicidal activity, postemergence test; details: post; sprayed onto seedling plants, 800 g of active material per hectare; evaluated 2 weeks after treatment
Procedure, shortened: as §1

Lamium purpureum [7] = assay: Herbicidal activity, postemergence test; details: post; sprayed onto seedling plants, 800 g of active material per hectare; evaluated 2 weeks after treatment
Procedure, shortened: as §1

Ambrosia artemisifolia [8] = assay: Herbicidal activity, postemergence test; details: post; sprayed onto seedling plants, 800 g of active material per hectare; evaluated 2 weeks after treatment
Procedure, shortened: as §1

Triticum aestivum [9] = assay: Herbicidal activity, postemergence test; details: post; sprayed onto seedling plants, 800 g of active material per hectare; evaluated 2 weeks after treatment
Procedure, shortened: as §1

Setaria viridis [10] = assay: Herbicidal activity, postemergence test; details: post; sprayed onto seedling plants, 800 g of active material per hectare; evaluated 2 weeks after treatment
Procedure, shortened: as §1

Galium aparine [11] = assay: Herbicidal activity, postemergence test; details: post; sprayed onto seedling plants, 800 g of active material per hectare; evaluated 2 weeks after treatment
Procedure, shortened: as §1

Gossypium hirsutum [12] = assay: Herbicidal activity, postemergence test; details: post; sprayed onto seedling plants, 800 g of active material per hectare; evaluated 2 weeks after treatment
Procedure, shortened: as §1

Zea mays [13] = assay: Herbicidal activity, postemergence test; details: post; sprayed onto seedling plants, 800 g of active material per hectare; evaluated 2 weeks after treatment
Procedure, shortened: as §1

Glycine max [14] = assay: Herbicidal activity, postemergence test; details: post; sprayed onto seedling plants, 800 g of active material per hectare; evaluated 2 weeks after treatment
Procedure, shortened: as §1

Alopecurus myosuroides [15] = assay: Herbicidal activity, postemergence test; details: post; sprayed onto seedling plants, 800 g of active material per hectare; evaluated 2 weeks after treatment
Procedure, shortened: as §1

Veronica persica [16] = assay: Herbicidal activity, postemergence test; details: post; sprayed onto seedling plants, 800 g of active material per hectare; evaluated 2 weeks after treatment
Procedure, shortened: as §1

Helianthus annuus [17] = assay: Herbicidal activity, postemergence test; details: post; sprayed onto seedling plants, 800 g of active material per hectare; evaluated 2 weeks after treatment
Procedure, shortened: as §1

Ipomoea hederacea [18] = assay: Herbicidal activity, postemergence test; details: post; sprayed onto seedling plants, 800 g of active material per hectare; evaluated 2 weeks after treatment
Procedure, shortened: as §1

Hordeum vulgare [19] = assay: Herbicidal activity, preemergence test; details: pre; sprayed onto soil, 800 g of active material per hectare; evaluated 3 weeks after treatment
Procedure, shortened: as §1

Echinochloa crus-galli [20] = assay: Herbicidal activity, preemergence test; details: pre; sprayed onto soil, 800 g of active material per hectare; evaluated 3 weeks after treatment
Procedure, shortened: as §1

Viola arvensis [21] = assay: Herbicidal activity, preemergence test; details: pre; sprayed onto soil, 800 g of active material per hectare; evaluated 3 weeks after treatment
Procedure, shortened: as §1

Amaranthus retroflexus [22] = assay: Herbicidal activity, preemergence test; details: pre; sprayed onto soil, 800 g of active material per hectare; evaluated 3 weeks after treatment
Procedure, shortened: as §1

Abutilon theophrasti [23] = assay: Herbicidal activity, preemergence test; details: pre; sprayed onto soil, 800 g of active material per hectare; evaluated 3 weeks after treatment
Procedure, shortened: as §1

Lamium purpureum [24] = assay: Herbicidal activity, preemergence test; details: pre; sprayed onto soil, 800 g of active material per hectare; evaluated 3 weeks after treatment
Procedure, shortened: as §1

Ambrosia artemisifolia [25] = assay: Herbicidal activity, preemergence test; details: pre; sprayed onto soil, 800 g of active material per hectare; evaluated 3 weeks after treatment
Procedure, shortened: as §1

Triticum aestivum [26] = assay: Herbicidal activity, preemergence test; details: pre; sprayed onto soil, 800 g of active material per hectare; evaluated 3 weeks after treatment
Procedure, shortened: as §1

Setaria viridis [27] = assay: Herbicidal activity, preemergence test; details: pre; sprayed onto soil, 800 g of active material per hectare; evaluated 3 weeks after treatment
Procedure, shortened: as §1

Galium aparine [28] = assay: Herbicidal activity, preemergence test; details: pre; sprayed onto soil, 800 g of active material per hectare; evaluated 3 weeks after treatment
Procedure, shortened: as §1

Gossypium hirsutum [29] = assay: Herbicidal activity, preemergence test; details: pre; sprayed onto soil, 800 g of active material per hectare; evaluated 3 weeks after treatment
Procedure, shortened: as §1

Zea mays [30] = assay: Herbicidal activity, preemergence test; details: pre; sprayed onto soil, 800 g of active material per hectare; evaluated 3 weeks after treatment
Procedure, shortened: as §1

Glycine max [31] = assay: Herbicidal activity, preemergence test; details: pre; sprayed onto soil, 800 g of active material per hectare; evaluated 3 weeks after treatment
Procedure, shortened: as §1

Alopecurus myosuroides [32] = assay: Herbicidal activity, preemergence test; details: pre; sprayed onto soil, 800 g of active material per hectare; evaluated 3 weeks after treatment
Procedure, shortened: as §1

Veronica persica [33] = assay: Herbicidal activity, preemergence test; details: pre; sprayed onto soil, 800 g of active material per hectare; evaluated 3 weeks after treatment
Procedure, shortened: as §1

Helianthus annuus [34] = assay: Herbicidal activity, preemergence test; details: pre; sprayed onto soil, 800 g of active material per hectare; evaluated 3 weeks after treatment
Procedure, shortened: as §1

Ipomoea hederacea [35] = assay: Herbicidal activity, preemergence test; details: pre; sprayed onto soil, 800 g of active material per hectare; evaluated 3 weeks after treatment
Procedure, shortened: as §1

Stellaria media [36] = assay: Herbicidal activity, preemergence test; details: pre; sprayed onto soil, 800 g of active material per hectare; evaluated 3 weeks after treatment
Procedure, shortened: as §1

SMILES	STEME control rating (0-9) (Stellaria media [1])	HORVW control rating (0-9) (Hordeum vulgare [2])	ECHCG control rating (0-9) (Echinochloa crus-galli [3])	VIOAR control rating (0-9) (Viola arvensis [4])	AMARE control rating (0-9) (Amaranthus retroflexus [5])	ABUTH control rating (0-9) (Abutilon theophrasti [6])	LAMPU control rating (0-9) (Lamium purpureum [7])	AMBEL control rating (0-9) (Ambrosia artemisifolia [8])	TRZAW control rating (0-9) (Triticum aestivum [9])	SETVI control rating (0-9) (Setaria viridis [10])	GALAP control rating (0-9) (Galium aparine [11])	GOSHI control rating (0-9) (Gossypium hirsutum [12])	ZEAMX control rating (0-9) (Zea mays [13])	GLXMA control rating (0-9) (Glycine max [14])	ALOMY control rating (0-9) (Alopecurus myosuroides [15])	VERPE control rating (0-9) (Veronica persica [16])	HELAN control rating (0-9) (Helianthus annuus [17])	IPOHE control rating (0-9) (Ipomoea hederacea [18])	HORVW control rating (0-9) (Hordeum vulgare [19])	ECHCG control rating (0-9) (Echinochloa crus-galli [20])	also measured
CC(NC(=O)c1nnc(-c2ccccc2)o1)c1cccs1 (racemic) [Example 1]	9 (complete kill)	5 (definite injury)	6 (herbicidal effect)	9 (complete kill)	9 (complete kill)	8 (approaching complete kill)	4 (injury)	8 (approaching complete kill)	2 (slight effect)	9 (complete kill)	6 (herbicidal effect)	9 (complete kill)	3 (moderate effect)	8 (approaching complete kill)	2 (slight effect)	9 (complete kill)	9 (complete kill)	5 (definite injury)	0 (no effect)	0 (no effect)	VIOAR control rating (0-9) (Viola arvensis [21]): 6 (herbicidal effect); AMARE control rating (0-9) (Amaranthus retroflexus [22]): 0 (no effect); ABUTH control rating (0-9) (Abutilon theophrasti [23]): 0 (no effect); LAMPU control rating (0-9) (Lamium purpureum [24]): 7 (good herbicidal effect); AMBEL control rating (0-9) (Ambrosia artemisifolia [25]): 0 (no effect); TRZAW control rating (0-9) (Triticum aestivum [26]): 0 (no effect); SETVI control rating (0-9) (Setaria viridis [27]): 4 (injury); GALAP control rating (0-9) (Galium aparine [28]): 0 (no effect); GOSHI control rating (0-9) (Gossypium hirsutum [29]): 0 (no effect); ZEAMX control rating (0-9) (Zea mays [30]): 0 (no effect); GLXMA control rating (0-9) (Glycine max [31]): 0 (no effect); ALOMY control rating (0-9) (Alopecurus myosuroides [32]): 0 (no effect); VERPE control rating (0-9) (Veronica persica [33]): 5 (definite injury); HELAN control rating (0-9) (Helianthus annuus [34]): 0 (no effect); IPOHE control rating (0-9) (Ipomoea hederacea [35]): 5 (definite injury)
CC(NC(=O)c1nnc(C(C)(C)C)o1)c1cccs1 (racemic) [Example 5]	8 (approaching complete kill)	4 (injury)	4 (injury)	7 (good herbicidal effect)	5 (definite injury)	8 (approaching complete kill)	1 (trace effect)	9 (complete kill)	4 (injury)	6 (herbicidal effect)	5 (definite injury)	9 (complete kill)	4 (injury)	8 (approaching complete kill)	3 (moderate effect)	9 (complete kill)	8 (approaching complete kill)	6 (herbicidal effect)	0 (no effect)	6 (herbicidal effect)	STEME control rating (0-9) (Stellaria media [36]): 8 (approaching complete kill); VIOAR control rating (0-9) (Viola arvensis [21]): 6 (herbicidal effect); AMARE control rating (0-9) (Amaranthus retroflexus [22]): 5 (definite injury); ABUTH control rating (0-9) (Abutilon theophrasti [23]): 7 (good herbicidal effect); LAMPU control rating (0-9) (Lamium purpureum [24]): 2 (slight effect); AMBEL control rating (0-9) (Ambrosia artemisifolia [25]): 1 (trace effect); TRZAW control rating (0-9) (Triticum aestivum [26]): 0 (no effect); SETVI control rating (0-9) (Setaria viridis [27]): 8 (approaching complete kill); GALAP control rating (0-9) (Galium aparine [28]): 0 (no effect); GOSHI control rating (0-9) (Gossypium hirsutum [29]): 0 (no effect); ZEAMX control rating (0-9) (Zea mays [30]): 0 (no effect); GLXMA control rating (0-9) (Glycine max [31]): 0 (no effect); ALOMY control rating (0-9) (Alopecurus myosuroides [32]): 4 (injury); VERPE control rating (0-9) (Veronica persica [33]): 8 (approaching complete kill); HELAN control rating (0-9) (Helianthus annuus [34]): 0 (no effect); IPOHE control rating (0-9) (Ipomoea hederacea [35]): 0 (no effect)
